The values that follow come from the supplement of paper PMC10627819.

For the assay, the system named is S. aureus DSM 20231. The assay is described as follows: Bliss interaction score (quartile over a dose matrix) (fitness difference); higher = more antagonism (negative = synergy). In a few lines:
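The Bliss score takes observed fitness and subtracts the expected fitness, calculated as a product of single-drug fitness values. Those single-drug values were inferred from the combination data. Fitness is OD595 at entry into stationary phase divided by the plate's robust no-drug mean, capped at 1, and the score is summarised by quartiles across technical, biological and donor/recipient replicates.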
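Note: first quartile when negative (synergy) and third quartile when positive (antagonism).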

Turning to `Cn1c(=O)c2c(ncn2C)n(C)c1=O` [Caffeine] + CCC[C@@H]1C[C@@H](C(=O)N[C@@H]([C@H]2O[C@H](SC)[C@H](O)[C@@H](O)[C@H]2O)[C@@H](C)O)N(C)C1 [Lincomycin], the Bliss interaction score is -0.292.
As to `Cn1c(=O)c2c(ncn2C)n(C)c1=O` [Caffeine] + CCC[C@@H]1C[C@@H](C(=O)N[C@@H]([C@H]2O[C@H](SC)[C@H](O)[C@@H](O)[C@H]2O)[C@H](C)Cl)N(C)C1 [Clindamycin], the Bliss interaction score is -0.251.
For the compound `Cn1c(=O)c2c(ncn2C)n(C)c1=O` [Caffeine] + CC[C@H]1OC(=O)[C@H](C)C(=O)[C@H](C)[C@@H](O[C@@H]2O[C@H](C)C[C@H](N(C)C)[C@H]2O)[C@](C)(OC)C[C@@H](C)C(=O)[C@H](C)[C@H]2N(CCCCn3cnc(-c4cccnc4)c3)C(=O)O[C@]12C [Telithromycin], the Bliss interaction score was -0.372.
Consider `Cn1c(=O)c2c(ncn2C)n(C)c1=O` [Caffeine] + CC[C@H]1OC(=O)[C@H](C)[C@@H](O[C@H]2C[C@@](C)(OC)[C@@H](O)[C@H](C)O2)[C@H](C)[C@@H](O[C@@H]2O[C@H](C)C[C@H](N(C)C)[C@H]2O)[C@](C)(OC)C[C@@H](C)C(=O)[C@H](C)[C@@H](O)[C@]1(C)O [Clarithromycin], for which the Bliss interaction score was -0.357.
For the compound `Cn1c(=O)c2c(ncn2C)n(C)c1=O` [Caffeine] + O=C(N[C@H](CO)[C@H](O)c1ccc([N+](=O)[O-])cc1)C(Cl)Cl [Chloramphenicol], the Bliss interaction score is -0.3.
Turning to `CO/N=C(\C(=O)N[C@@H]1C(=O)N2C(C(=O)O)=C(COC(C)=O)CS[C@H]12)c1csc(N)n1` [Cefotaxime] + Nc1ccc(O)c(C(=O)O)c1 [Mesalamine], the Bliss interaction score was 0.16.
Regarding `CO/N=C(\C(=O)N[C@@H]1C(=O)N2C(C(=O)O)=C(COC(C)=O)CS[C@H]12)c1csc(N)n1` [Cefotaxime] + O=c1[nH]cc(F)c(=O)[nH]1 [Fluorouracil], the Bliss interaction score was -0.114.
On the same count and under the same terms, as for `CO/N=C(\C(=O)N[C@@H]1C(=O)N2C(C(=O)O)=C(COC(N)=O)CS[C@H]12)c1ccco1` [Cefuroxime] + CCCSc1nc(N[C@@H]2C[C@H]2c2ccc(F)c(F)c2)c2nnn([C@@H]3C[C@H](OCCO)[C@@H](O)[C@H]3O)c2n1 [Ticagrelor], the figure is 0.137.
Turning to `COCCOC(=O)C1=C(C)NC(C)=C(C(=O)OC/C=C/c2ccccc2)C1c1cccc([N+](=O)[O-])c1` (stereo not given) [Cilnidipine] + CC1(C)S[C@@H]2[C@H](NC(=O)Cc3ccccc3)C(=O)N2[C@H]1C(=O)O [PenicillinG], the Bliss interaction score was -0.229.
`COCCOC(=O)C1=C(C)NC(C)=C(C(=O)OC/C=C/c2ccccc2)C1c1cccc([N+](=O)[O-])c1` (stereo not given) [Cilnidipine] + CC(=O)NC[C@H]1CN(c2ccc(N3CCOCC3)c(F)c2)C(=O)O1 [Linezolid]: the Bliss interaction score was -0.254.
On to `COCCOC(=O)C1=C(C)NC(C)=C(C(=O)OC/C=C/c2ccccc2)C1c1cccc([N+](=O)[O-])c1` (stereo not given) [Cilnidipine] + CCC(C)C1C(=O)NC(=C)C(=O)NC(C(=O)NC(CSCC(C(=O)N1)NC(=O)/C(=C/C)/NC(=O)C(C(C)CC)N)C(=O)NC2C(SCC(NC(=O)CNC(=O)C3CCCN3C2=O)C(=O)NC(CCCCN)C(=O)NC4C(SCC(NC(=O)CNC(=O)C(NC(=O)C(NC(=O)C(NC(=O)CNC4=O)C)CC(C)C)CCSC)C(=O)NC(CC(=O)N)C(=O)NC(CCSC)C(=O)NC(CCCCN)C(=O)NC5C(SCC6C(=O)NC(C(=O)NC(CSC(C(C(=O)N6)NC(=O)C(NC5=O)C)C)C(=O)NC(CO)C(=O)NC(C(C)CC)C(=O)NC(CC7=CN=CN7)C(=O)NC(C(C)C)C(=O)NC(=C)C(=O)NC(CCCCN)C(=O)O)CC8=CN=CN8)C)C)C)CC(C)C [Nisin], for which the Bliss interaction score (main component drawn) is 0.156.
In the case of `COCCOC(=O)C1=C(C)NC(C)=C(C(=O)OC/C=C/c2ccccc2)C1c1cccc([N+](=O)[O-])c1` (stereo not given) [Cilnidipine] + CCC[C@@H]1C[C@@H](C(=O)N[C@@H]([C@H]2O[C@H](SC)[C@H](O)[C@@H](O)[C@H]2O)[C@H](C)Cl)N(C)C1 [Clindamycin], the Bliss interaction score was -0.221.
Regarding `COCCOC(=O)C1=C(C)NC(C)=C(C(=O)OC/C=C/c2ccccc2)C1c1cccc([N+](=O)[O-])c1` (stereo not given) [Cilnidipine] + CC[C@H]1OC(=O)[C@H](C)[C@@H](O[C@H]2C[C@@](C)(OC)[C@@H](O)[C@H](C)O2)[C@H](C)[C@@H](O[C@@H]2O[C@H](C)C[C@H](N(C)C)[C@H]2O)[C@](C)(OC)C[C@@H](C)C(=O)[C@H](C)[C@@H](O)[C@]1(C)O [Clarithromycin], the Bliss interaction score is -0.196.
Consider `COCCOC(=O)C1=C(C)NC(C)=C(C(=O)OC/C=C/c2ccccc2)C1c1cccc([N+](=O)[O-])c1` (stereo not given) [Cilnidipine] + CN(C)C(=O)C(CCN1CCC(O)(c2ccc(Cl)cc2)CC1)(c1ccccc1)c1ccccc1 [Loperamide], for which the Bliss interaction score is -0.32.
For `COCCOC(=O)C1=C(C)NC(C)=C(C(=O)OC/C=C/c2ccccc2)C1c1cccc([N+](=O)[O-])c1` (stereo not given) [Cilnidipine] + CN(C)[C@@H]1C(O)=C(C(N)=O)C(=O)[C@@]2(O)C(O)=C3C(=O)c4c(O)ccc(Cl)c4[C@@](C)(O)[C@H]3C[C@@H]12 [Clortetracycline], the Bliss interaction score is -0.323.
On the same count and under the same terms, as for `COCCOC(=O)C1=C(C)NC(C)=C(C(=O)OC/C=C/c2ccccc2)C1c1cccc([N+](=O)[O-])c1` (stereo not given) [Cilnidipine] + CO[C@@]12[C@H](COC(N)=O)C3=C(C(=O)C(C)=C(N)C3=O)N1C[C@@H]1N[C@@H]12 [MitomycinC], the figure is -0.236.
`COCCOC(=O)C1=C(C)NC(C)=C(C(=O)OC/C=C/c2ccccc2)C1c1cccc([N+](=O)[O-])c1` (stereo not given) [Cilnidipine] + COc1cc(Cc2cnc(N)nc2N)cc(OC)c1OC [Trimethoprim]: the Bliss interaction score was -0.299.
Regarding `COCCOC(=O)C1=C(C)NC(C)=C(C(=O)OC/C=C/c2ccccc2)C1c1cccc([N+](=O)[O-])c1` (stereo not given) [Cilnidipine] + C[C@H]1c2cccc(O)c2C(=O)C2=C(O)[C@]3(O)C(=O)C(C(N)=O)=C(O)[C@@H](N(C)C)[C@@H]3[C@@H](O)[C@@H]21 [Doxycycline], the Bliss interaction score is -0.272.
The same measure, in the same setting: as for `COCCOC(=O)C1=C(C)NC(C)=C(C(=O)OC/C=C/c2ccccc2)C1c1cccc([N+](=O)[O-])c1` (stereo not given) [Cilnidipine] + Clc1ccc(COC(Cn2ccnc2)c2ccc(Cl)cc2Cl)c(Cl)c1 [Miconazole], the figure is 0.105; as for `COCCOC(=O)C1=C(C)NC(C)=C(C(=O)OC/C=C/c2ccccc2)C1c1cccc([N+](=O)[O-])c1` (stereo not given) [Cilnidipine] + Cn1nnc(-c2ccc(-c3ccc(N4C[C@H](CO)OC4=O)cc3F)cn2)n1 [Tedizolid], -0.429; as for `O=C(O)c1cn(C2CC2)c2cc(N3CCNCC3)c(F)cc2c1=O` [Ciprofloxacin] + CCCSc1nc(N[C@@H]2C[C@H]2c2ccc(F)c(F)c2)c2nnn([C@@H]3C[C@H](OCCO)[C@@H](O)[C@H]3O)c2n1 [Ticagrelor], -0.375.
Take `O=C(O)c1cn(C2CC2)c2cc(N3CCNCC3)c(F)cc2c1=O` [Ciprofloxacin] + COc1cc2ncnc(Nc3ccc(F)c(Cl)c3)c2cc1OCCCN1CCOCC1 [Gefitinib]: the Bliss interaction score is -0.336.
Regarding `O=C(O)c1cn(C2CC2)c2cc(N3CCNCC3)c(F)cc2c1=O` [Ciprofloxacin] + Cc1c(Cl)cccc1Nc1ccccc1C(=O)O [Tolfenamic], the Bliss interaction score was -0.188.
The same measure, in the same setting: the result for `CN(C)[C@@H]1C(O)=C(C(N)=O)C(=O)[C@@]2(O)C(O)=C3C(=O)c4c(O)ccc(Cl)c4[C@@](C)(O)[C@H]3C[C@@H]12` [Clortetracycline] + CC(=O)Oc1cccc2c1C(=O)c1c(OC(C)=O)cc(C(=O)O)cc1C2=O [Diacerein] reads -0.344; that for `CN(C)[C@@H]1C(O)=C(C(N)=O)C(=O)[C@@]2(O)C(O)=C3C(=O)c4c(O)ccc(Cl)c4[C@@](C)(O)[C@H]3C[C@@H]12` [Clortetracycline] + CC(=O)S[C@@H]1CC2=CC(=O)CC[C@]2(C)[C@H]2CC[C@@]3(C)[C@@H](CC[C@@]34CCC(=O)O4)[C@H]12 [Spironolactone], 0.196.
The same measure, in the same setting: the result for `CN(C)[C@@H]1C(O)=C(C(N)=O)C(=O)[C@@]2(O)C(O)=C3C(=O)c4c(O)ccc(Cl)c4[C@@](C)(O)[C@H]3C[C@@H]12` [Clortetracycline] + CCCc1nc2c(C)cc(-c3nc4ccccc4n3C)cc2n1Cc1ccc(-c2ccccc2C(=O)O)cc1 [Telmisartan] reads -0.261; that for `CN(C)[C@@H]1C(O)=C(C(N)=O)C(=O)[C@@]2(O)C(O)=C3C(=O)c4c(O)ccc(Cl)c4[C@@](C)(O)[C@H]3C[C@@H]12` [Clortetracycline] + CC[C@H](c1ccc(O)cc1)[C@@H](CC)c1ccc(O)cc1 [Hexestrol], -0.204; that for `CN(C)[C@@H]1C(O)=C(C(N)=O)C(=O)[C@@]2(O)C(O)=C3C(=O)c4c(O)ccc(Cl)c4[C@@](C)(O)[C@H]3C[C@@H]12` [Clortetracycline] + COc1ccc(CCN(C)CCCC(C#N)(c2ccc(OC)c(OC)c2)C(C)C)cc1OC [Verapamil], 0.243.
As for `CN(C)[C@@H]1C(O)=C(C(N)=O)C(=O)[C@@]2(O)C(O)=C3C(=O)c4c(O)ccc(Cl)c4[C@@](C)(O)[C@H]3C[C@@H]12` [Clortetracycline] + C[C@]12CC[C@@H]3c4ccc(O)cc4CC[C@H]3[C@@H]1CC[C@@H]2O [Estradiol], the Bliss interaction score was determined as 0.237.
With `CN(C)[C@@H]1C(O)=C(C(N)=O)C(=O)[C@@]2(O)C(O)=C3C(=O)c4c(O)ccc(Cl)c4[C@@](C)(O)[C@H]3C[C@@H]12` [Clortetracycline] + Cc1c(C)c2c(c(C)c1O)CCC(C)(COc1ccc(CC3SC(=O)NC3=O)cc1)O2 [Troglitazone], the Bliss interaction score was -0.137.
Consider `CN(C)[C@@H]1C(O)=C(C(N)=O)C(=O)[C@@]2(O)C(O)=C3C(=O)c4c(O)ccc(Cl)c4[C@@](C)(O)[C@H]3C[C@@H]12` [Clortetracycline] + O=C(O)c1cc(-c2ccc(F)cc2F)ccc1O [Diflunisal], for which the Bliss interaction score came out at 0.232.
On to `CN(C)[C@@H]1C(O)=C(C(N)=O)C(=O)[C@@]2(O)C(O)=C3C(=O)c4c(O)ccc(Cl)c4[C@@](C)(O)[C@H]3C[C@@H]12` [Clortetracycline] + OCc1cc(C(O)CNCCCCCCOCCCCc2ccccc2)ccc1O [Salmeterol], for which the Bliss interaction score is -0.118.
Take `CC(=O)Oc1cccc2c1C(=O)c1c(OC(C)=O)cc(C(=O)O)cc1C2=O` [Diacerein] + CC(=O)NC[C@H]1CN(c2ccc(N3CCOCC3)c(F)c2)C(=O)O1 [Linezolid]: the Bliss interaction score is -0.29.
On to `CC(=O)Oc1cccc2c1C(=O)c1c(OC(C)=O)cc(C(=O)O)cc1C2=O` [Diacerein] + CN(C)C(=O)C(CCN1CCC(O)(c2ccc(Cl)cc2)CC1)(c1ccccc1)c1ccccc1 [Loperamide], for which the Bliss interaction score was -0.474.
On to `CC(=O)Oc1cccc2c1C(=O)c1c(OC(C)=O)cc(C(=O)O)cc1C2=O` [Diacerein] + COc1cc(Cc2cnc(N)nc2N)cc(OC)c1OC [Trimethoprim], for which the Bliss interaction score is -0.243.
